Assay results reported in patent US11896678B2, “Compositions and methods for treatment of peroxisome proliferator-activated receptor gamma (PPARG) activated cancer” (THE BROAD INSTITUTE, INC., priority 2017, dated 2024).

Legend:
[1] = molecular target: T1, PPARG (Homo sapiens, UniProt P37231); assay: RT112/84 FABP4-NLucP reporter gene assay, unstimulated; assay type: cell-based
T1 construct: endogenous in cells; host or cells: RT112/84 bladder cancer cells (FABP4-NLucP knock-in clone)
T1 sequence (P37231 1-477 isoform P37231-2): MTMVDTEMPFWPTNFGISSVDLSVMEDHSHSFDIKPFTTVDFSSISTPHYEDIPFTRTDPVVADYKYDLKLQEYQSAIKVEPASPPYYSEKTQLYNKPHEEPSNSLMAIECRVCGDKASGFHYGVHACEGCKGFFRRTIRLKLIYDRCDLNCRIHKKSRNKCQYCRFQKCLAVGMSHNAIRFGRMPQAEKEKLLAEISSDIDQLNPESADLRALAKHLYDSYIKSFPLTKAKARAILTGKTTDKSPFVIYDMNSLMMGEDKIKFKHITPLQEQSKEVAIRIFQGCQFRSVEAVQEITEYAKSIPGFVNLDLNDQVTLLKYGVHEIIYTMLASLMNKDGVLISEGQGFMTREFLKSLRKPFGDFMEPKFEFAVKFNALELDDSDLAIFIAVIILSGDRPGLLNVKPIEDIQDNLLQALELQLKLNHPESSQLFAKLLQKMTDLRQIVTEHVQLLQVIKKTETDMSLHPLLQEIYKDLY
Description: Next, a PPARG reporter cell line was engineered to enable higher throughput assays to evaluate PPARG transactivation. Briefly, a destabilized NanoLuc luciferase reporter gene was inserted into the 3′-UTR of the FABP4 gene in the RT112/84 bladder cancer cell line using CRISPR/Cas9 mediated homology-directed repair (FIG. 4A).
(§1) RT112-FABP4-NLucP Reporter Gene Assay: Reporter cell line was generated by engineering NanoLuc gene into the 3′ UTR of FABP4 in RT112/84 cells using CRISPR/Cas9 guided genome engineering. Single cell clones were generated and the clone with the widest dynamic range selected for use. Assays were performed by seeding 384-well plates with ˜10,000 cells per well in MEMalpha containing 10% FBS and dosing compounds at indicated concentration using HP D300 digital dispenser (HP/Tecan). 18-24 hours after dosing with compound, cells were assayed using NanoGlo Luciferase Assay Reagent (Promega Madison, WI) and plates were read using EnVision Multilabel Reader (PerkinElmer Waltham, MA).

[2] = molecular target: T1, PPARG; assay: RT112/84 FABP4-NLucP reporter gene assay, antagonist mode with rosiglitazone; assay type: cell-based; conditions: in the presence of rosiglitazone
Method: as §1

[3] = system: FABP4 expression; assay: Immunoblot of FABP4 in bladder cancer cell lines; assay type: cell-based, human; conditions: panel of bladder cancer cell lines
Method: Western Blot Analysis: Western blots were performed using standard protocols with semi-dry transfer Trans-Blot® SD (Bio-Rad Hercules, CA), Li-Cor Odyssey Blocking buffer, and imaging with LiCor Odyssey Imaging System (LI-COR Lincoln, NE). Briefly, cells were grown in 6-well plates and harvested using Complete Lysis-M with protease and phosphatase inhibitors (Roche Applied Science). Western blot analyses were performed using standard protocols with semi-dry transfer Trans-Blot SD (Bio-Rad), LI-COR Odyssey Blocking buffer, and imaging with LI-COR Odyssey Imaging System (LI-COR). The anti-PPARG C26H12, anti-PPARG 81B8, anti-FABP4 D25B3, and anti-CEACAM5 CB30 antibodies were obtained from Cell Signaling Technology. The anti-ACSL5 ab57210 and anti-HMCGS2 EPR8642 antibodies were obtained from Abcam. The anti-VCL (vinculin) V9264 antibody was obtained from Sigma-Aldrich. All primary antibodies were tested at 1:1,000 dilutions, with the exception of anti-VCL, which was tested at a 1:5,000 dilution. Secondary goat anti-mouse 926-68020, and goat-anti-rabbit 926-32211 antibodies were obtained from LI-COR Biosciences and used at 1:15,000 dilutions.

[4] = system: PPARG target gene expression in UM-UC-9 cells; assay: RNA sequencing of UM-UC-9 cells after 7 days dosing; assay type: cell-based, human; conditions: 500 nmol/L
Method: Next, the effects of long-term dosing on the transcriptional profile of the PPARG-amplified cell line, UMUC-9, were evaluated. Briefly, UM-UC-9 cells were treated for 7 days with various PPARG modulators dosed at 500 nmol/L and gene expression was analyzed using RNA sequencing. […] Genes that were more abundantly expressed upon treatment with inverse-agonists included ALPP, SPINK4, and ALDH1A3 (FIG. 5). […] In summary, the in vitro pharmacological properties of known PPARG modulators have been characterized and two distinct chemotypes with bona-fide inverse-agonist activity in PPARG-activated bladder cancer cells were identified.
RNAseq analysis: RNA was isolated using RNEasy (Qiagen) and an RNAseq library was prepared using NEBNext Ultra Directional RNA Library Prep Kit for Illumina and NEBNext Multiplex Oligos for Illumina (New England BioLabs). RNAseq sequencing was performed using an Illumina MiSeq instrument according to the manufacturers protocol. Sequence data was analyzed using Firehose (Broad Institute, Cambridge MA) to map transcripts and calculate RPKM (SW780 cDNA expression) or TPM (UM-UC-9).
For UM-UC-9 RNAseq experiment, the resulting reads were used to calculate transcript abundance in units of TPM (transcripts per million) (18), which were then adjusted using TMM normalization (19) for comparison. […]

[5] = system: PPARG-activated pancreatic and colorectal cancer cell lines; assay: Kinetic proliferation assay in pancreatic and colorectal cancer cell lines; assay type: cell-based; conditions: 500 nM
Description: To enable cell-counting, cell lines were transduced with a lentiviral vector encoding nuclear-targeted GFP (TagGFP2-H2B), and stable pools generated following selection for puromycin-resistance. Cell lines were maintained for at least 7 days following selection prior to expansion and seeding into 96-well plates for further analysis. For kinetic proliferation assays, 96-well plates were imaged in phase-contrast and green fluorescence mode every two hours using IncuCyte Zoom (Essen BioScience, Ann Arbor MI). Using IncuCyte software, the number of fluorescent nuclei were counted to monitor quantitative changes in cell number over time. Media and compounds were replaced approximately every 3-4 days.
DMSO treatment was also included as a vehicle control.

[6] = molecular target: T2, PPARG ligand-binding domain - NCoR/NCOR1 corepressor peptide (Homo sapiens, UniProt P37231); assay: TR-FRET corepressor assay, NCoR/NCOR1 peptide; assay type: biochemical; conditions: data not shown
T2 construct: purchased ThermoFisher Scientific
T2 sequence (P37231 238-503 limits assumed): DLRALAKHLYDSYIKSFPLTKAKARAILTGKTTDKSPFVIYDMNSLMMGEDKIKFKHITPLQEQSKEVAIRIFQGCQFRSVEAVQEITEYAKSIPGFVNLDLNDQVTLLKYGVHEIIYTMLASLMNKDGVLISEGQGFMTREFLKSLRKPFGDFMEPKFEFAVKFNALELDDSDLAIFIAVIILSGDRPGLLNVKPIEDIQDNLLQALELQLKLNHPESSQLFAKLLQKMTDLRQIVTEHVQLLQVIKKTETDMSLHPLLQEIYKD
Method: To evaluate inverse-agonism, a TR-FRET PPARG co-repressor assay (ThermoFisher) that measures recruitment of a fluorescent NCOR1 or NCOR2 corepressor peptide to the PPARG ligand-binding domain was used (ThermoFisher).
In addition to the PPARG-NCOR2 interaction assay described above, interactions between PPARG and a peptide from the corepressor NCOR1 were measured.

## O=C(Nc1ccccc1)c1cc([N+](=O)[O-])ccc1Cl [GW9662]
[1]
  effect on unstimulated reporter: minimal detectable effect
[2]
  effect on agonist-induced signal: decreased the agonist-induced signal back to the original baseline
[3]
  expression of FABP4: not
[4]
  hierarchical clustering of gene expression signatures: cluster with vehicle-treated controls
[5]
  sensitivity of cell lines: not sensitive
[6]
  induced signal: 2.5 fold
